Reference: US5614192A, “T cell receptor peptides as therapeutics for immune-related disease” (Connective Therapeutics, Inc., priority 1993, dated 1997)
Ends that are not written are not given here.

Tested on: EAE
Experiment: Clinical EAE in rats treated with TCR Vβ8(39-59) before or after onset (Table 22)
Type: in vivo
Protocol: The ability of the TCR Vβ8(39-59) given either SC (in adjuvant) or ID (in saline) to disrupt the disease process when given at various times after induction of EAE with GPBP was tested (Table 22). […] In both cases, with both routes of injection of the peptide, there was a significant reduction in the duration of the disease, though not in the severity or time of onset. The efficacy of the peptide given in saline via the ID route is of particular importance to human therapy, as it is preferred to SC injection in adjuvant.
In Experiment 2, the time of ID administration of the TCR peptide was varied, as was the dose. […] A delay in onset of the disease was also observed. Furthermore, the percentage of animals showing signs of the disease decreased. A larger dose of the peptide (200 μg) appeared less efficacious than the lower dose, possibly due to a short-term overload of the peptide which could have comprised the immune response generated against the TCR. Treatment with a similarly sized peptide corresponding to an irrelevant TCR had no effect on onset, severity or incidence of EAE, but may have reduced the duration somewhat (last line of Table 22).

[1] = Exp. 1, 100 μg SC in CFA, day 10
[2] = Exp. 1, 100 μg SC in CFA, day 13

DMGHGLRLIHYSYDVNSTEKG [TCR Vβ8(39-59), 21-amino acid CDR2 peptide of rat TCR Vβ8]
Day of Onset (Exp. 1, 50 μg ID, day 13): 13.4 ± 0.5
Disease Duration (Exp. 1, 50 μg ID, day 13): 3.2 ± 0.5
Disease Incidence (Exp. 1, 50 μg ID, day 13): 5/5
Disease Severity (Exp. 1, 50 μg ID, day 13): 2.6 ± 0.4
Day of Onset [1]: 14.0 ± 0.4
Disease Duration [1]: 3.2 ± 0.4
Disease Incidence [1]: 5/5
Disease Severity [1]: 2.8 ± 0.4
Day of Onset [2]: 13.0 ± 0
Disease Duration [2]: 4.0 ± 0
Disease Incidence [2]: 5/5
Disease Severity [2]: 3.0 ± 0
Day of Onset (Exp. 2, 50 μg ID, day 7): 15.0 ± 0.8
Disease Duration (Exp. 2, 50 μg ID, day 7): 2.0 ± 2.0
Disease Incidence (Exp. 2, 50 μg ID, day 7): 4/6
Disease Severity (Exp. 2, 50 μg ID, day 7): 1.7 ± 1.4
Day of Onset (Exp. 2, 50 μg ID, day 14): 16.0 ± 1.
Disease Duration (Exp. 2, 50 μg ID, day 14): 2.3 ± 2.0
Disease Incidence (Exp. 2, 50 μg ID, day 14): 4/6
Disease Severity (Exp. 2, 50 μg ID, day 14): 1.7 ± 1.5
Day of Onset (Exp. 2, 50 μg, day 0): 15.6 ± 2.6
Disease Duration (Exp. 2, 50 μg, day 0): 2.3 ± 1.6
Disease Incidence (Exp. 2, 50 μg, day 0): 5/6
Disease Severity (Exp. 2, 50 μg, day 0): 1.8 ± 1.0
Day of Onset (Exp. 2, 200 μg ID, day 13): 14.0 ± 1.4
Disease Duration (Exp. 2, 200 μg ID, day 13): 3.0 ± 1.2
Disease Incidence (Exp. 2, 200 μg ID, day 13): 6/6
Disease Severity (Exp. 2, 200 μg ID, day 13): 2.3 ± 0.8
